≈ marks a conversion by molar mass, not a printed value.
Legend:
Format in all cases: functional
Staphylococcus aureus = assay: Antibacterial activity against Staphylococcus aureus ATCC 29213 by broth microdilution method
Pseudomonas aeruginosa = assay: Antibacterial activity against Pseudomonas aeruginosa B 63230 by broth microdilution method
Escherichia coli = assay: Antibacterial activity against Escherichia coli ATCC 25922 by broth microdilution method

`CN(C)[C@@H]1C(O)=C(C(N)=O)C(=O)[C@@]2(O)C(O)=C3C(=O)c4c(O)cccc4[C@@](C)(O)[C@H]3C[C@@H]12` [TETRACYCLINE] gave an MIC (Staphylococcus aureus) of 0.25 µg/mL (≈ 0.563 µM), an MIC (Pseudomonas aeruginosa) of 32 µg/mL (≈ 72 µM) and an MIC (Escherichia coli) of 0.5 µg/mL (≈ 1.13 µM).
